Experimental data published in US20090062255A1, “TUMOR-TARGETING EVALUATION METHODOLOGY AND COMPOUNDS RELATED THERETO” (THALLION PHARMACEUTICALS INC., priority 2007, published 2009).

Target: GABAA, the Central Benzodiazepine Receptor (CBR)
Assay: CBR radioligand binding assay ([3H]flunitrazepam, rat brain)
Details: 1 nM [3H]-Flunitrazepam
Text: GABAA, the Central Benzodiazepine Receptor (CBenzR or CBR) is involved in anxiolitic activities.
The procedures used were based on known assays: ACAT (from rat; Ref: Largis et al (1989), J. Lipid. Res., vol 30, 681-689), COX-2 (human; Ref: Riendeau et al (1997), Can. J. Physiol. Pharmacol., vol 75, 1088-1095 and Warner et al (1999), Pro. Natl. Acad. Sci. USA, vol 96, 7563-7568), 5-LO (human; Ref: Carter et al (1991), J. Pharmacol. Exp. Ther., vol 256, no 3, 929-937, and Safayhi et al (2000), Planta Medica, vol 66, 110-113), PBR (from rat; Le Fur et al (1983), Life Sci. USA, vol 33, 449-457), CysLT1 (human; Martin et al (2001), Biochem. Pharmacol., vol 62, no 9, 1193-1200) and CBR (from rat; Damm et al (1978), Res. Comm. Chem. Pathol. Pharmacol., vol 22, 597-600 and Speth et al (1979), Life Sci., vol 24, 351-357).
Binding Assays were done at constant concentration of the compound, in 1% DMSO as vehicle, and are specified below each enzyme/receptor type in Table 18. The results are expressed in Table 18 as percentage inhibition. […]
As Compound 1 was isolated from structural prediction through genetic analysis and activity identified through in vitro cytotoxic assays, its molecular target(s) were unknown at the time of discovery. […] The effect of ECO-4601 on CBR (GABAA) and PBR was initially evaluated in a radioligand-binding assay at MDS Pharma Services (Taipei, Tawain). […]

**Q.** Which IC50 does the source give for `CC(C)=CCC/C(C)=C/CC/C(C)=C/CN1C(=O)c2cccc(O)c2Nc2c(O)cc(O)cc21` [Compound 1, 10-farnesyl-4,6,8-trihydroxy-5,10-dihydrodibenzo[b,e][1,4]diazepin-11-one] here?
**A.** > 10 µM
